In patent US5464617A, “β-lactam compounds” (Hoffmann-La Roche Inc., priority 1994, dated 1995):
≈ marks a conversion by molar mass, not a printed value. Counter-ions that a name gives are not always drawn.

Tests used:
[1] = tested on: Citrobacter freundii 1982; test: MIC in vitro of a 1:4 combination of ceftriaxone with a compound of formula I (Test D); format: cell-based; conditions: test D
Protocol: The minimum inhibitory concentration in vitro ([…]) of a 1:4 combination of ceftriaxone with a compound of formula I against Citrobacter freundii 1982 was measured and compiled in Table 2 hereinafter.

[2] = tested on: E. coli 1346; test: Antibacterial activity of the products per se, serial dilution method in liquid medium (Test E); format: cell-based; conditions: test E, product per se
Text: The antibacterial activity of the products per se is illustrated on the basis of Table 3 hereinafter, the minimum inhibitory concentration […] in vitro against E. coli 1346 being determined using the serial dilution method in liquid medium: […]

[3] = Table 4, 1:4 combination of ceftriaxone with the compound

SMILES	MIC C. freundii 1982 (D) [1, 3] [µg/mL]	MIC E. coli 1346 (E) ([2]; Table 4) [µg/mL]	MIC C. freundii 1982 (D) ([1]; Table 5, particularly preferred products, 1:4 combination with ceftriaxone) [µg/mL]	MIC E. coli 1346 (E) ([2]; Table 5, particularly preferred products) [µg/mL]
C=CCN1C[C@H]2OC(CSc3nnnn3C)=C(C(=O)O)N3C(=O)[C@@H]1[C@@H]23 [Example 30, (1aS,3aR,6bS)-2-Allyl-5-(1-methyl-1H-tetrazol-5-ylsulphanylmethyl)-1-oxo-4-oxa-1,1a,2,3,3a,6b-hexahydro-2,6a-diazacyclobut[cd]indene-6-carboxylic acid sodium salt]	1	8	–	–
Cc1nnc(SCC2=C(C(=O)O)N3C(=O)[C@@H]4[C@H]3[C@@H](CN4C(=O)Nc3ccc(O)cc3)O2)s1 [Example 31(a), (1aS,3aR,6bS)-2-(4-Hydroxy-phenylcarbamoyl)-5-(5-methyl-1,3,4-thiadiazol-2-ylsulphanylmethyl)-1-oxo-1,1a,2,3,3a,6 b-hexahydro-4-oxa-2,6a-diazacyclobut[cd]indene-6-carboxylic acid sodium salt]	0.5	8	–	–
CC(=O)N1C[C@H]2OC(CSc3nnc(N)s3)=C(C(=O)O)N3C(=O)[C@@H]1[C@@H]23 [Example 33, (1aS,3aR,6bS)-2-Acetyl-5-(5-amino-1,3,4-thiadiazol-2-ylsulphanylmethyl)-1-oxo-1,1a,2,3,3a,6b-hexahydro-4-oxa-2,6a-diazacyclobut[cd]indene-6-carboxylicacid sodium salt]	2	2	–	–
Cc1nnc(SCC2=C(C(=O)O)N3C(=O)[C@@H]4[C@H]3[C@@H](CN4C(=O)CSc3nnnn3C)O2)s1 [Example 34, (1aS,3aR,6bS)-2-(1-Methyl-1H-tetrazol-5-ylsulphanylacetyl)-5-(5-methyl-1,3,4-thiadiazol-2-ylsulphanylmethyl)-1-oxo-1,1a,2,3,3a,6b-hexahydro-4-oxa-2,6a-diazacyclobut[cd]indene-6-carboxylic acid]	1	8 (≈ 16.1 µM)	–	–
CC(=O)N1C[C@H]2OC(CSc3nnnn3C)=C(C(=O)O)N3C(=O)[C@@H]1[C@@H]23 [Example 35, (1aS,3aR,6bS)-2-Acetyl-5-(1-methyl-1H-tetrazol-5-yl-sulphanylmethyl)-1-oxo-1,1a,2,3,3a,6b-hexahydro-4-oxa-2,6 a-diazacyclobut[cd]indene-6-carboxylic acid sodium salt]	–	–	1	0.5
O=CN1C[C@H]2OC(CSc3nnnn3CC(=O)NC3CC3)=C(C(=O)O)N3C(=O)[C@@H]1[C@@H]23 [Example 37, (1aS,3aR,6bS)-5-(1-Cyclopropylcarbamoylmethyl-1H-tetrazol-5-ylsulphanylmethyl)-2-formyl-1-oxo-1,1a,2,3,3a,6b-hexahydro-4-oxa-2,6a-diazacyclobut[cd]indene-6-carboxylic acid sodium salt]	32	32	–	–
NC(=O)Cn1nnnc1SCC1=C(C(=O)O)N2C(=O)[C@@H]3[C@H]2[C@@H](CN3C(=O)C(F)(F)F)O1 [Example 39, (1aS,3aR,6bS)-5-(1-Carbamoylmethyl-1H-tetrazol-5-ylsulphanylmethyl)-1-oxo-2-trifluoroacetyl-1,1a,2,3,3a,6b-hexahydro-4-oxa-2,6a-diazacyclobut[cd]indene-6-carboxylic acid sodium salt]	2	8	–	–
Cn1nnnc1SCC1=C(C(=O)O)N2C(=O)[C@H]3NC[C@@H](S1)[C@H]32 [Example 40(a), (1aS,3aR,6bS)-5-(1-Methyl-1H-tetrazol-5-ylsulphanylmethyl)-1-oxo-4-thia-1,1a,2,3,3a,6b-hexahydro-2,6a-diazacyclobut[cd]indene-6-carboxylic acid]	0.5	16 (≈ 47 µM)	–	–
Cn1nnnc1CSCC1=C(C(=O)O)N2C(=O)[C@H]3NC[C@@H](S1)[C@H]32 [Example 43, (1aS,3aR,6bS)-5-(1-Methyl-1H-tetrazol-5-ylmethylsulphanylmethyl)-1-oxo-4-thia-1,1a,2,3,3a,6 b-hexahydro-2,6a-diazacyclobut-[cd]indene-6-carboxylic acid sodium salt]	4	> 32	–	–
CSc1nnnn1CC1=C(C(=O)O)N2C(=O)[C@H]3NC[C@@H](S1)[C@H]32 [Example 44, (1aS,3aR,6bS)-5-(5-Methylsulphanyl-1H-tetrazol-1-ylmethyl)-1-oxo-1,1a,2,3,3a,6b-hexahydro-4-thia-2,6a-diazacyclobut[cd]indene-6-carboxylic acid sodium salt]	4	32	–	–
C=CC1=C(C(=O)O)N2C(=O)[C@@H]3[C@H]2[C@H](C1)CN3C(C)=O [Example 47, (1aS,3aR, 6bR)-2-Acetyl-1-oxo-5-vinyl-1a,2,3,3a,4,6b-hexahydro-1H-2,6a-diazacyclobut[cd]indene-6-carboxylic acid sodium salt]	4	8	–	–
O=C([O-])C[n+]1ccc(SCC2=C(C(=O)O)N3C(=O)[C@H]4NC[C@@H](C2)[C@H]43)cc1 [Example 50, (1aS,3aR,6bR)-[4-(6-Carboxy-1-oxo-1a,2,3,3a,4,6b-hexahydro-1H-2,6a-diazacyclobut[cd]indene-5-ylmethylsulphanyl)-pyridin-1-ylio]acetatetrifluoroacetate]	2	4 (≈ 10.7 µM)	–	–
O=C([O-])C[n+]1ccc(SCC2=C(C(=O)O)N3C(=O)[C@@H]4[C@H]3[C@H](C2)CN4C(=O)NCc2ccccc2)cc1 [Example 51, (1aS,3aR,6bR)-[4-(2-Benzylcarbamoyl-6-carboxy-1-oxo-1a,2,3,3a,4,6b-hexahydro-1H-2,6a-diazacyclobut[cd]inden-5-ylmethylsulphanyl)-pyridin-2-ylio]-acetate sodium salt]	1	> 32	–	–
O=C([O-])C[n+]1ccc(SCC2=C(C(=O)O)N3C(=O)[C@@H]4[C@H]3[C@H](C2)CN4C(=O)C(F)(F)F)cc1 [Example 52(b), (1aS,3aR,6bR)-[4-(2-Trifluoroacetyl-6-carboxy-1-oxo-1a,2,3,3a,4,6b-hexahydro-1H-2,6a-diazacyclobut[cd]inden-5-ylmethylsulphanyl)-pyridin-1-ylio]-acetate sodium salt]	1	2	–	–
Cn1nc(O)c(=O)nc1SCC1=C(C(=O)O)N2C(=O)[C@H]3NC[C@@H](C1)[C@H]32 [Example 53, (1aS,3aR,6bR)-5-(2,5-Dihydro-6-hydroxy-2-methyl-5-oxo-1,2,4-triazin-3-ylsulphanylmethyl)-1-oxo-1a,2,3,3a,4,6 b-hexahydro-1H-2,6a-diazacyclobut[cd]indene-6-carboxylic acid trifluoroacetate]	4	2	–	–
Cn1nc(O)c(=O)nc1SCC1=C(C(=O)O)N2C(=O)[C@@H]3[C@H]2[C@H](C1)CN3C(=O)Nc1ccc(O)cc1 [Example 54, (1aS,3aR,6bR)-5-(2,5-Dihydro-6-hydroxy-2-methyl-5-oxo-1,2,4-triazin-3-ylsulphanylmethyl)-2-(4-hydroxy-phenylcarbamoyl)-1-oxo-1a,2,3,3a,4,6b-hexahydro-1H-2,6a-diazacydobut[cd]indene-6-carboxylic acid sodium salt (1:2)]	0.25	32	–	–
Cc1nnc(SCC(=O)N2C[C@H]3CC(COC(N)=O)=C(C(=O)O)N4C(=O)[C@@H]2[C@@H]34)s1 [Example 58(e), (1aS,3aR,6bR)-5-Carbamoyloxymethyl-2-(5-methyl-1,3,4-thiadiazol-2-ylsulphanylacetyl)-1-oxo-1a,2,3,3a,4,6b-hexahydro-1H-2,6a-diazacyclobut[cd]indene-6-carboxylic acid sodium salt]	0.25	8	–	–
NC(=O)OCC1=C(C(=O)O)N2C(=O)[C@@H]3[C@H]2[C@H](C1)CN3CC(=O)Nc1ccc(O)cc1 [Example 59(a), (1aS,3aR,6bR)-5-Carbamoyloxymethyl-2-(4-hydroxyphenylcarbamoylmethyl)-1-oxo-I a,2,3,3a,4,6b-hexahydro-1H-2,6a-diazacyclobut[cd]indene-6-carboxylic acid sodium salt]	1	2	–	–
CO/N=C(\C(=O)N1C[C@H]2CC(COC(N)=O)=C(C(=O)O)N3C(=O)[C@@H]1[C@@H]23)c1csc(N)n1 [Example 60, (Z)-(1aS,3aR,6bR)-2-[(2-Amino-thiazol-4-yl)-methoxyimino-acetyl]-5-carbamoyloxymethyl-1-oxo-1a,2,3,3a,4,6b-hexahydro-1H-2,6a-diazacyclobut[cd]indene-6-carboxylic acid]	2	> 32	–	–
CCOC(=O)N1C[C@H]2CC(CSc3nnnn3C)=C(C(=O)O)N3C(=O)[C@@H]1[C@@H]23 [Example 62, (1aS,3aR,6bR)-5-(1-Methyl-1H-tetrazol-5-ylsulphanylmethyl)-1-oxo-1a,2,3,3a,4,6b-hexahydro-1H-2,6a-diazacyclobut[cd]indene-2,6-dicarboxylic acid 2-ethyl ester]	0.5	16 (≈ 40.6 µM)	–	–
Cc1nnc(SCC2=C(C(=O)O)N3C(=O)[C@H]4NC[C@@H](C2)[C@H]43)s1 [Example 63, (1aS,3aR,6bR)-5-(5-Methyl-1,3,4-thiadiazol-2-ylsulphanylmethyl)-1-oxo-1a,2,3,3a,4,6b-hexahydro-1H-2,6a-diazacyclobut[cd]indene-6-carboxylic acid trifluoroacetate]	2	8	–	–
